Assay results reported in patent US8084479B2, “Thiazole compounds and methods of use” (Amgen Inc., priority 2006, dated 2011).

These compounds were tested against PKBα (Homo sapiens, UniProt P31749) (assay: PKB kinase assay (P33-labeled ATP, peptide substrate, filter plate)). Details: PKBα enzyme (full length or kinase domain with pleckstrin domain deleted).
Type: biochemical
Description: The kinase assay for evaluating PKB activity comprises active PKB enzymes, a PKB specific substrate, and P^33-labeled ATP. […] The phosphorylated substrate was captured by a phosphocellulose membrane filter plate (MLLIPORE) and measured by a Wallac Microbeta liquid scintillation counter (Perkin Elmer).

Sequence of PKBα (P31749 118-480 limits assumed): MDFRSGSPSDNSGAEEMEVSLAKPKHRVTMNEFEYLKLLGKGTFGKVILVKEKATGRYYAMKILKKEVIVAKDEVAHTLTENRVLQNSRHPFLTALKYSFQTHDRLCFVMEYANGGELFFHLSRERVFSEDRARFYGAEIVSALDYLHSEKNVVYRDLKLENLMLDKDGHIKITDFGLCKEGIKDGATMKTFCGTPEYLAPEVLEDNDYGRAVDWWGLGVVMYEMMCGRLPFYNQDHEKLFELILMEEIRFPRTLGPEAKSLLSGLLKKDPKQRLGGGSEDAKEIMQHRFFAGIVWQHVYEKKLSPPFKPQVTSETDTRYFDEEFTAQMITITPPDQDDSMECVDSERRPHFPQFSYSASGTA

IC50	Structure (SMILES)
< 0.05 µM	N[C@H](CNc1ncc(-c2ccc3c(c2)CC(=O)N3)s1)Cc1ccc(Cl)c(F)c1 [Example 86, 5-(2-((S)-2-Amino-3-(4-chloro-3-fluorophenyl)propylamino)thiazol-5-yl)indolin-2-one]
0.05 to 1 µM	COC(C)c1nc(NC[C@@H](N)Cc2ccc(C(F)(F)F)cc2)sc1-c1ccc2cnccc2c1 (stereo partly drawn) [Example 16, N—((S)-2-amino-3-(4-(trifluoromethyl)phenyl)propyl)-5-(isoquinolin-6-yl)-4-(1-methoxyethyl)thiazol-2-amine]
1 to 10 µM	Cn1nc(N)c2ccc(-c3cnc(NC[C@@H](N)Cc4ccc(C(F)(F)F)cc4)s3)cc21 [Example 53, 6-(2-((S)-2-amino-3-(4-(trifluoromethyl)phenyl)propylamino)thiazol-5-yl)-1-methyl-1H-indazol-3-amine]
0.05 to 1 µM	COc1cc(C[C@H](N)CNc2ncc(-c3ccc4c(c3)CC(=O)N4)s2)cnc1C(F)(F)F [Example 174, 5-(2-((S)-2-amino-3-(5-methoxy-6-(trifluoromethyl)pyridin-3-yl)propylamino)thiazol-5-yl)indolin-2-one]
0.05 to 1 µM	N[C@H](CNc1ncc(-c2ccc3c(c2)C(F)(F)C(=O)N3)s1)Cc1ccc(C(F)(F)F)cc1 [Example 41, 5-(2-((S)-2-amino-3-(4-(trifluoromethyl)phenyl)propylamino)thiazol-5-yl)-3,3-difluoroindolin-2-one]
0.05 to 1 µM	N[C@H](CNc1ncc(-c2ccc3[nH]c(=O)oc3c2)s1)Cc1cccc(C(F)(F)F)c1 [Example 46, 6-(2-((S)-2-amino-3-(3-(trifluoromethyl)phenyl)propylamino)thiazol-5-yl)benzo[d]oxazol-2(3H)-one]
0.05 to 1 µM	Nc1noc2ccc(-c3cnc(NC[C@@H](N)Cc4c[nH]c5ccccc45)s3)cc12 [Example 38, 5-(2-((S)-2-amino-3-(1H-indol-3-yl)propylamino)thiazol-5-yl)benzo[d]isoxazol-3-amine]
< 0.05 µM	NC(CNc1ncc(-c2ccc3cnccc3c2)s1)Cc1ccc(O)c(F)c1 (centres unmarked) [Example 218, 4-(2-Amino-3-(5-(isoquinolin-6-yl)thiazol-2-ylamino)propyl)-2-fluorophenol]
< 0.05 µM	CC(O)[C@@H](c1ccc(C(F)(F)F)cc1)[C@H](N)CNc1ncc(-c2ccc3c(c2)CC(=O)N3)s1 (stereo partly drawn) [Example 243, 5-(2-((2S,3S)-2-amino-4-hydroxy-3-(4-(trifluoromethyl)phenyl)pentylamino)thiazol-5-yl)indolin-2-one]
0.05 to 1 µM	CC(C)(C)C(=O)OC[C@@H](c1ccc(C(F)(F)F)cc1)[C@H](N)CNc1ncc(-c2ccc3c(c2)CC(=O)N3)s1 [Example 242, (2S,3S)-3-amino-4-(5-(2-oxoindolin-5-yl)thiazol-2-ylamino)-2-(4-(trifluoromethyl)phenyl)butyl pivalate]
0.05 to 1 µM	CC(C)(O)C#Cc1nc(NC[C@@H](N)Cc2ccc(C(F)(F)F)cc2)sc1-c1ccc2cnccc2c1 [Example 79, 4-(2-((S)-2-Amino-3-(4-(trifluoromethyl)phenyl)propylamino)-5-(isoquinolin-6-yl)thiazole-4-yl)-2-methylbut-3-yn-2-ol]
0.05 to 1 µM	N[C@H](CNc1ncc(-c2nc3ccncc3s2)s1)Cc1ccc(Cl)c(Cl)c1 [Example 97, N—((S)-2-Amino-3-(3,4-dichlorophenyl)propyl)-5-(thiazolo[5,4-c]pyridin-2-yl)thiazol-2-amine]
0.05 to 1 µM	N[C@H](CNc1ncc(-c2ccc3c(c2)CC(=O)N3)s1)Cc1ccc2ccccc2c1 [Example 201, 5-(2-((S)-2-amino-3-(naphthalen-2-yl)propylamino)thiazol-5-yl)indolin-2-one]
0.05 to 1 µM	COCc1nc(NC[C@@H](N)Cc2c[nH]c3ccccc23)sc1-c1nc2ccncc2s1 [Example 27, N—((S)-2-amino-3-(1H-indol-3-yl)propyl)-4-(methoxymethyl)-5-(thiazolo[5,4-c]pyridin-2-yl)thiazol-2-amine]
< 0.05 µM	COCc1nc(NC[C@@H](N)Cc2ccc(Cl)cc2)sc1-c1nc2ccncc2s1 [Example 19, N—((S)-2-amino-3-(4-chlorophenyl)propyl)-4-(methoxymethyl)-5-(thiazolo[5,4-c]pyridin-2-yl)thiazol-2-amine]
0.05 to 1 µM	N[C@@H](CNc1ncc(-c2ccc3c(c2)CC(=O)N3)s1)Cc1ccc(C(F)(F)F)cc1 [Example 137, 5-(2-((R)-2-Amino-3-(4-(trifluoromethyl)phenyl)propylamino)thiazol-5-1)indolin-2-one]
0.05 to 1 µM	Cn1c(=O)[nH]c2ccc(-c3cnc(NC[C@@H](N)Cc4ccc5ccccc5c4)s3)cc21 [Example 203, 6-(2-((S)-2-amino-3-(naphthalen-2-yl)propylamino)thiazol-5-yl)-1-methyl-1H-benzo[d]imidazol-2(3H)-one]
< 0.05 µM	Cn1c(=O)[nH]c2ccc(-c3cnc(NC[C@@H](N)Cc4ccc(C(F)(F)F)c(F)c4)s3)cc21 [Example 184, 6-(2-((S)-2-amino-3-(3-fluoro-4-(trifluoromethyl)phenyl)propylamino)thiazol-5-yl)-1-methyl-1H-benzo[d]imidazol-2(3H)-one]

IC50	Structure (SMILES)
1 to 10 µM	C[C@H](Nc1ncc(-c2ccc3[nH]c(=O)n(C)c3c2)s1)[C@@H](N)Cc1ccc(C(F)(F)F)cc1 [Example 237, 6-(2-((2S,3S)-3-amino-4-(4-(trifluoromethyl)phenyl)butan-2-ylamino)thiazol-5-yl)-1-methyl-1H-benzo[d]imidazol-2(3H)-one]
0.05 to 1 µM	N[C@H](CNc1nc(C2CC2)c(-c2ccc3cnccc3c2)s1)Cc1ccc(C(F)(F)F)cc1 [Example 169]
1 to 10 µM	N[C@H](CNc1nc(COCC(F)(F)F)c(-c2nc3ccncc3s2)s1)Cc1cccc(Cl)c1 [Example 20, N—((S)-2-amino-3-(3-chlorophenyl)propyl)-5-(thiazolo[5,4-c]pyridin-2-yl)-4-((2,2,2-trifluoroethoxy)methyl)thiazol-2-amine]
< 0.05 µM	COCc1nc(NC[C@@H](N)Cc2ccc(Cl)c(Cl)c2)sc1-c1nc2ccncc2s1 [Example 96, N—((S)-2-Amino-3-(3,4-dichlorophenyl)propyl)-4-(methoxymethyl)-5-(thiazolo[5,4-c]pyridin-2-yl)thiazol-2-amine]
0.05 to 1 µM	N[C@H](CNc1nc(-c2cnco2)c(-c2ccc3cnccc3c2)s1)Cc1ccc(C(F)(F)F)cc1 [Example 118, N—((S)-2-Amino-3-(4-(trifluoromethyl)phenyl)propyl)-5-(isoquinolin-6-yl)-4-(oxazol-5-yl)thiazol-2-amine]
1 to 10 µM	CS(=O)(=O)NCC#Cc1nc(NC[C@@H](N)Cc2ccc(C(F)(F)F)cc2)sc1-c1ccc2cnccc2c1 [Example 151, N-(3-(2-((S)-2-amino-3-(4-(trifluoromethyl)phenyl)propylamino)-5-(isoquinolin-6-yl)thiazol-4-yl)prop-2-ynyl)methanesulfonamide]
< 0.05 µM	N[C@H](CNc1nc(CO)c(-c2ccc3c(c2)CC(=O)N3)s1)Cc1ccc(C(F)(F)F)cc1 [Example 123, 5-(2-((S)-2-Amino-3-(4-(trifluoromethyl)phenyl)propylamino)-4-(hydroxymethyl)thiazol-5-yl)indolin-2-one]
0.05 to 1 µM	N[C@H](CNc1nc(Br)c(-c2nc3ccncc3s2)s1)Cc1ccc(C(F)(F)F)cc1 [Example 111, N—((S)-2-Amino-3-(4-(trifluoromethyl)phenyl)propyl)-4-bromo-5-(thiazolo[5,4-c]pyridin-2-yl)thiazol-2-amine]
< 0.05 µM	COC(=O)c1nc(NC[C@@H](N)Cc2ccc(C(F)(F)F)cc2)sc1-c1ccc2[nH]c(=O)oc2c1 [Example 124, Methyl 2-((S)-2-Amino-3-(4-(trifluoromethyl)phenyl)propylamino)-5-(2-oxo-2,3-dihydrobenzo[d]oxazol-6-yl)thiazole-4-carboxylate]
0.05 to 1 µM	N[C@H](CNc1nc(-c2ccc(F)c(F)c2)c(-c2ccc3cnccc3c2)s1)Cc1ccc(C(F)(F)F)cc1 [Example 101, N—((S)-2-Amino-3-(4-(trifluoromethyl)phenyl)propyl)-4-(3,4-difluorophenyl)-5-(isoquinolin-6-yl)thiazol-2-amine]
1 to 10 µM	N[C@H](CNc1ncc(-c2ccc3c(c2)CC(=O)N3)s1)Cc1c[nH]c2ccccc12 [Example 74, 5-(2-((S)-2-amino-3-(1H-indol-3-yl)propylamino)thiazol-5-yl)indolin-2-one ditrifluoroacetate]
0.05 to 1 µM	N[C@H](CNc1ncc(-c2ccc3[nH]c(=O)oc3c2)s1)Cc1cc(F)cc(F)c1 [Example 164, 6-(2-((S)-2-amino-3-(3,5-difluorophenyl)propylamino)thiazol-5-yl)benzo[d]oxazol-2(3H)one]
< 0.05 µM	COc1cc(C[C@H](N)CNc2ncc(-c3ccc4cnccc4c3)s2)cnc1C(F)(F)F [Example 173]
< 0.05 µM	Cn1c(=O)[nH]c2ccc(-c3cnc(NC[C@@H](N)Cc4ccc(Cl)c(F)c4)s3)cc21 [Example 87, 6-(2-((S)-2-Amino-3-(4-chloro-3-fluorophenyl)propylamino)thiazol-5-yl)-1-methyl-1H-benzo[d]imidazol-2(3H)-one]
< 0.05 µM	N[C@H](CNc1nc(CO)c(-c2ccc3cnccc3c2)s1)Cc1ccc(C(F)(F)F)cc1 [Example 10, (2-((S)-2-amino-3-(4-(trifluoromethyl)phenyl)propylamino)-5-(isoquinolin-6-yl)thiazol-4-yl)methanol]
1 to 10 µM	Cn1c(=O)[nH]c2ccc(-c3cnc(NC[C@@H](N)Cc4cc(F)cc(F)c4)s3)cc21 [Example 162, 6-(2-((S)-2-amino-3-(3,5-difluorophenyl)propylamino)thiazol-5-yl)-1-methyl-1H-benzo[d]imidazol-2(3H)one]
< 0.05 µM	N[C@H](CNc1ncc(-c2ccc3cnccc3n2)s1)Cc1ccc(C(F)(F)F)cc1 [Example 68, N—((S)-2-amino-3-(4-(trifluoromethyl)phenyl)propyl)-5-(1,6-naphthyridin-2-yl)thiazol-2-amine]
